According to patent US20190119284A1, “ErbB Inhibitors and Uses Thereof” (The Regents of the University of California, priority 2016, published 2019):

How the values were obtained:
Format in all cases: biochemical
Details in all cases: for inhibition at 1 µM: compound at 1 μM
IGF1R = IGF1R (Homo sapiens, UniProt P08069); experiment: Nanosyn in vitro kinase profiling: IGF1R
Description: (§1) This was confirmed by in vitro profiling against a panel of kinases, with compound 2 only showing potent inhibition of EGFR and Ab1 (Table 2).
(§2) In vitro Kinome Screen. In vitro profiling of compound 2 at 100 nM was conducted by Nanosyn.

CHEK1 = target: T1, CHEK1 (Homo sapiens, UniProt O14757); experiment: Nanosyn in vitro kinase profiling: CHEK1
T1 sequence (O14757 1-476): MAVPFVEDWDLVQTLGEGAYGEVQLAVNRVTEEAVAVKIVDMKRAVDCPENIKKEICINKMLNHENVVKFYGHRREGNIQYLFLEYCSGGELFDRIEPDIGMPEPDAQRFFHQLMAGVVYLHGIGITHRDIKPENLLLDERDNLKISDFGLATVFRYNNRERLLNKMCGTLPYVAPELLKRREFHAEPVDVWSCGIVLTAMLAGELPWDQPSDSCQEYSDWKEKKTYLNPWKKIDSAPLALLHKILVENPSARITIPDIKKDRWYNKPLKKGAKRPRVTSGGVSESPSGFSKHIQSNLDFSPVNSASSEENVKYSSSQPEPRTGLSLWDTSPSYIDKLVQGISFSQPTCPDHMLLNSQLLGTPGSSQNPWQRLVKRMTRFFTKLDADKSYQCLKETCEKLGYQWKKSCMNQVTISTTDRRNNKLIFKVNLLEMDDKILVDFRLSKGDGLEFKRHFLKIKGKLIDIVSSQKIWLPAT
Description: as §1, §2

IRAK4 = target: T2, IRAK4 (Homo sapiens, UniProt Q9NWZ3); experiment: Nanosyn in vitro kinase profiling: IRAK4
T2 sequence (Q9NWZ3 1-460): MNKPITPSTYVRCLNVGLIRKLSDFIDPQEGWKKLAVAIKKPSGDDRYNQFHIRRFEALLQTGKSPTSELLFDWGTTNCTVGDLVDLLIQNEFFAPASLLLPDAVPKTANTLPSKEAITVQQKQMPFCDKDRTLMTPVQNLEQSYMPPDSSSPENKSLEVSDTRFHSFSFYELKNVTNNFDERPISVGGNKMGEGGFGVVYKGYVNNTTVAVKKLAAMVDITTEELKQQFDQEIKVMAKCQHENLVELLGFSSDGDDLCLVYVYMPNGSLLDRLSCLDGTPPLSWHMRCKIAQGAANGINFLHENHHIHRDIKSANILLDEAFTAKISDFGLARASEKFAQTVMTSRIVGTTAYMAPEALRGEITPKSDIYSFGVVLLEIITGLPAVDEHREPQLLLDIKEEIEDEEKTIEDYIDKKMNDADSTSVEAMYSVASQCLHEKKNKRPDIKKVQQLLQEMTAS
Description: as §1, §2

PIM-1-KINASE = PIM-1-KINASE (Homo sapiens, UniProt P11309); experiment: Nanosyn in vitro kinase profiling: PIM-1-KINASE
PIM-1-KINASE, sequence (P11309 whole entry): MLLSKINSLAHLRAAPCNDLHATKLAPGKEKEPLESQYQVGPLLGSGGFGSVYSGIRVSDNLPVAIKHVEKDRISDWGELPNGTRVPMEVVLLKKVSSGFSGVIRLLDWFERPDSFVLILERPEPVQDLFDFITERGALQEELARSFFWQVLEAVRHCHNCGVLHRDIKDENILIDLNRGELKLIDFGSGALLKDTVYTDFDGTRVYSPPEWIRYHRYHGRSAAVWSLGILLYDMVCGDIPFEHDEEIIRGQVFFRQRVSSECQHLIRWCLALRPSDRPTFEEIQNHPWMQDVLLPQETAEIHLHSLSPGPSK
Description: as §1, §2

MAP4K4 = MAP4K4 (Homo sapiens, UniProt O95819); experiment: Nanosyn in vitro kinase profiling: MAP4K4
MAP4K4, sequence (O95819 whole entry): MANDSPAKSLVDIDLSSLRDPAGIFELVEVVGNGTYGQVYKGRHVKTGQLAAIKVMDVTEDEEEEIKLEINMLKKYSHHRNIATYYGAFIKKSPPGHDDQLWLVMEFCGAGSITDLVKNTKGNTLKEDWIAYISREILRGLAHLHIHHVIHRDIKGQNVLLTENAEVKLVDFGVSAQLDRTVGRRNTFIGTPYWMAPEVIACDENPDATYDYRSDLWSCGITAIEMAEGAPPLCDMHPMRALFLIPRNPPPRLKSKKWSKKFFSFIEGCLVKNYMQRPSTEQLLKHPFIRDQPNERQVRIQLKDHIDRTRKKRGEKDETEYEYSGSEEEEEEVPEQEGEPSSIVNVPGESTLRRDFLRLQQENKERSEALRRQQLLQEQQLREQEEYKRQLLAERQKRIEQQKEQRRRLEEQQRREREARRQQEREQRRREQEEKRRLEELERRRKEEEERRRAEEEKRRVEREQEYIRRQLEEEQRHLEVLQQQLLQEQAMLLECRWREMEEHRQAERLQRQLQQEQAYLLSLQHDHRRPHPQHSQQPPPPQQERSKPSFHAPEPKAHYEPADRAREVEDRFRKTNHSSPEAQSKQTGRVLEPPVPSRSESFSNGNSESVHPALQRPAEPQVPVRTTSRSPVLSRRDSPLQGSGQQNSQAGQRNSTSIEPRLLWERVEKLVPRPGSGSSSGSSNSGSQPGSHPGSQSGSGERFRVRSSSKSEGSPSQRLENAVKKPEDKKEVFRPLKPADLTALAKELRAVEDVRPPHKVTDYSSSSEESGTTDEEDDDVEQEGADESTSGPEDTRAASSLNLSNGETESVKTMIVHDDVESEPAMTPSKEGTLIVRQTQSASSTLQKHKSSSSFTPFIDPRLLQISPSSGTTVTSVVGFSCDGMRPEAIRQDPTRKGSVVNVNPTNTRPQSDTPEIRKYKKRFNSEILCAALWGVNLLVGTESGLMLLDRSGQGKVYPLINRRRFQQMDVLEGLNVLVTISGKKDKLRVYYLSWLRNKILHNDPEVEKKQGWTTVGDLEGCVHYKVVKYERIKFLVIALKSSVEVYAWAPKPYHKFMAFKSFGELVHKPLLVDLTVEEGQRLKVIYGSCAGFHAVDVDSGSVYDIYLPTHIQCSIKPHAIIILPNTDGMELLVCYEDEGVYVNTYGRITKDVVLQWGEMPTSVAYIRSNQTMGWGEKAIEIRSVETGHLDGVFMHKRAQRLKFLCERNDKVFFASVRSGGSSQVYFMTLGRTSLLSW
Description: as §1, §2

PRKD2 = target: T3, PRKD2 (Homo sapiens, UniProt Q9BZL6); experiment: Nanosyn in vitro kinase profiling: PRKD2
T3 sequence (Q9BZL6 1-878): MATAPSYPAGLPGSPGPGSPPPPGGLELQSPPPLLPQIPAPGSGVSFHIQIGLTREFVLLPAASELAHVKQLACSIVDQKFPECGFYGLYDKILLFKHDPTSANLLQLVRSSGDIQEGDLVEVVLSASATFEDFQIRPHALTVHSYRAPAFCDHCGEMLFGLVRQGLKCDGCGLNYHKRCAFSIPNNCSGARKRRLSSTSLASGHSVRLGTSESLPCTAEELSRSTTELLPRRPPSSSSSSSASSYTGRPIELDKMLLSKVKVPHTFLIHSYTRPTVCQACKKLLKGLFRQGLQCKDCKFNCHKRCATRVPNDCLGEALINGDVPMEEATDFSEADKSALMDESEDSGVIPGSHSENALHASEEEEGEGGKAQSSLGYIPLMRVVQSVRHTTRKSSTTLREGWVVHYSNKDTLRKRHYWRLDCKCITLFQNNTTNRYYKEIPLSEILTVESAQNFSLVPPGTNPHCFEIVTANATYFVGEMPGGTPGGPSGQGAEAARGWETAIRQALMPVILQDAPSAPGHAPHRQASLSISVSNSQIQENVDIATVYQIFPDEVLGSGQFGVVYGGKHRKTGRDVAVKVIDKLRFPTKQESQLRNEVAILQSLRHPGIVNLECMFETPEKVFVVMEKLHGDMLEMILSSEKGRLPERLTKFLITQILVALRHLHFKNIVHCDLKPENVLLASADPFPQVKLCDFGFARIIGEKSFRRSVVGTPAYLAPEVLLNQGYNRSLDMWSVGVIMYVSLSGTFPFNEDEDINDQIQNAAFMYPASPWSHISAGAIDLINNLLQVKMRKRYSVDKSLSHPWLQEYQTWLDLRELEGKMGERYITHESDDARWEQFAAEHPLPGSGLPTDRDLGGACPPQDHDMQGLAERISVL
Description: as §1, §2

FGFR1 = FGFR1 (Homo sapiens, UniProt P11362); experiment: Nanosyn in vitro kinase profiling: FGFR1
FGFR1, sequence (P11362 22-822): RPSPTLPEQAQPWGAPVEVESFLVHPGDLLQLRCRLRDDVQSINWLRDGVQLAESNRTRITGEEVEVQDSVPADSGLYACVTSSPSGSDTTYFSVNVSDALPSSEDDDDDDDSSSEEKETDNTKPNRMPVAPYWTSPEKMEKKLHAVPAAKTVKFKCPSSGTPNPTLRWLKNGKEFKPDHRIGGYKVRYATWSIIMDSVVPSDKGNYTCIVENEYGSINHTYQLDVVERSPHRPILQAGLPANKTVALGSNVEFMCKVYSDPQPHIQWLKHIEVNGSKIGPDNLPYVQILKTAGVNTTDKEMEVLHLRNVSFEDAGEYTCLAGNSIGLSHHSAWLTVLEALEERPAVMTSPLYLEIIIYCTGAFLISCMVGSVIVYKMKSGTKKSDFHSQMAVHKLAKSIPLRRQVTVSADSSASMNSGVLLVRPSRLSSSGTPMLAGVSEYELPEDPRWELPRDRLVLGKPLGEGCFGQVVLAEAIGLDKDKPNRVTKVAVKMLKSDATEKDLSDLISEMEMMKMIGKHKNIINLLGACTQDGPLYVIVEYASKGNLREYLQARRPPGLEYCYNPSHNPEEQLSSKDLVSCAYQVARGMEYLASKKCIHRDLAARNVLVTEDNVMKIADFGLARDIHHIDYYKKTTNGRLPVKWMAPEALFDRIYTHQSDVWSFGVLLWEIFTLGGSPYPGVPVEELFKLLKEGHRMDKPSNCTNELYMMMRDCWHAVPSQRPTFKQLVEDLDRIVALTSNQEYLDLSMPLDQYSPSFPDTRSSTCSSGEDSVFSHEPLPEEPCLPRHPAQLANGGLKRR
Description: as §1, §2

SGK1 = target: T4, SGK1 (Homo sapiens, UniProt O00141); experiment: Nanosyn in vitro kinase profiling: SGK1
T4 sequence (O00141 1-431): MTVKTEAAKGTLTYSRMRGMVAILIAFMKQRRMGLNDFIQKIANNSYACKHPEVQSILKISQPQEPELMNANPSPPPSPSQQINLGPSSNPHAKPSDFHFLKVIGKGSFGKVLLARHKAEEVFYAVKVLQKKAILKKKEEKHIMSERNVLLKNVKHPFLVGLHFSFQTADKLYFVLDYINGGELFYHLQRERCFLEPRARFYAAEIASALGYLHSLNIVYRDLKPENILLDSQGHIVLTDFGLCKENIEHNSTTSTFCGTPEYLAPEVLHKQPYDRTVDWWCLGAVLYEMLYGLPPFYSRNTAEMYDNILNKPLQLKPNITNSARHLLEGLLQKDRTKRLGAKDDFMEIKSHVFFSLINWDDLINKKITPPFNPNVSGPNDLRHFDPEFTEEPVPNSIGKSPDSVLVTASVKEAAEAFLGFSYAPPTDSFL
Description: as §1, §2

IGF1R, sequence (P08069 31-1367): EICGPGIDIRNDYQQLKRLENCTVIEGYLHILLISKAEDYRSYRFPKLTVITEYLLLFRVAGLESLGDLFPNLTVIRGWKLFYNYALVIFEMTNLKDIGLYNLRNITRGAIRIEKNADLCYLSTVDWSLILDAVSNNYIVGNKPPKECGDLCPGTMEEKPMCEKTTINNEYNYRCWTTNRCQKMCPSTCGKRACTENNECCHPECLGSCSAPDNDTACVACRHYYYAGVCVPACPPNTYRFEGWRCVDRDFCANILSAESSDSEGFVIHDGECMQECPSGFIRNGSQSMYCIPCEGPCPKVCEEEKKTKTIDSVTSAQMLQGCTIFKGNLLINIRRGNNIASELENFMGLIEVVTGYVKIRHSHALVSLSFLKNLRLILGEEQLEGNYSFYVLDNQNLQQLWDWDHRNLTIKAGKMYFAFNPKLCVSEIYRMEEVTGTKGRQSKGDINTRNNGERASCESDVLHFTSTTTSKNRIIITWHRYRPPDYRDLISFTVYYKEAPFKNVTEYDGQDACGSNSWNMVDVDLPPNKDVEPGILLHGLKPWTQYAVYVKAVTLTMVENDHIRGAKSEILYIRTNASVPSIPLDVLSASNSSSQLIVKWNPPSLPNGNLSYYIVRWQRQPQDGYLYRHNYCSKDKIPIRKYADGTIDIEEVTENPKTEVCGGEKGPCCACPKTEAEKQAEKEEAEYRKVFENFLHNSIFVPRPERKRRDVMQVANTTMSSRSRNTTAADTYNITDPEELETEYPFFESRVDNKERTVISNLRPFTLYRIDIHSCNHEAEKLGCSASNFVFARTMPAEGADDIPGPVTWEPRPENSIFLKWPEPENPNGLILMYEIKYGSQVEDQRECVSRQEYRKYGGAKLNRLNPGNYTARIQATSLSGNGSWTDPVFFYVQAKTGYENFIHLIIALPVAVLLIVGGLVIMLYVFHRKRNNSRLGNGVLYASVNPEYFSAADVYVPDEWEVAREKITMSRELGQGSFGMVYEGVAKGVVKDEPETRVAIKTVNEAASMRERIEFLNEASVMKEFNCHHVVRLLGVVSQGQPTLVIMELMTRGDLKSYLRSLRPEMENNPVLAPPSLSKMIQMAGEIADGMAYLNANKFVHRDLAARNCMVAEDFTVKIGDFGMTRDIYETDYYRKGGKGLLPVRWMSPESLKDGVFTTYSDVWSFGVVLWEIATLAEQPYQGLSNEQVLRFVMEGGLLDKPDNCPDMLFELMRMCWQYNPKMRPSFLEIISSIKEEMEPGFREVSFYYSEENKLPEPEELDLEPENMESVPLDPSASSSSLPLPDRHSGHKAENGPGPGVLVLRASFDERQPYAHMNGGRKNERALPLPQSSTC

Row | Structure (SMILES) | inhibition at 0.1 µM (IGF1R; compound at 100 nM) | inhibition at 1 µM (IGF1R) | inhibition at 0.1 µM (CHEK1; compound at 100 nM) | inhibition at 1 µM (CHEK1) | inhibition at 0.1 µM (IRAK4; compound at 100 nM) | inhibition at 1 µM (IRAK4) | inhibition at 0.1 µM (PIM-1-KINASE; compound at 100 nM) | inhibition at 1 µM (PIM-1-KINASE) | inhibition at 0.1 µM (MAP4K4; compound at 100 nM) | inhibition at 1 µM (MAP4K4) | inhibition at 0.1 µM (PRKD2; compound at 100 nM) | inhibition at 1 µM (PRKD2) | inhibition at 0.1 µM (FGFR1; compound at 100 nM) | inhibition at 1 µM (FGFR1) | inhibition at 0.1 µM (SGK1; compound at 100 nM) | inhibition at 1 µM (SGK1)
1 | COc1ccc(-c2ccco2)cc1Nc1ncnc2[nH]nc(-c3ccco3)c12 [compound 2, 3-(furan-2-yl)-N-(5-(furan-2-yl)-2-methoxyphenyl)-1H-pyrazolo[3,4-d]pyrimidin-4-amine] | 13.3% | 53.3% | 0.965% | 2.27% | 1.47% | 1.42% | 4.08% | 8.71% | 36.5% | 78.7% | 5.46% | 26.6% | 48.3% | 86.3% | 14.4% | 53.4%
2 | COc1ccc(-c2ccoc2)cc1Nc1ncnc2[nH]cc(-c3cc[nH]n3)c12 [compound 3, N-(5-(furan-3-yl)-2-methoxyphenyl)-5-(1H-pyrazol-3-yl)-7H-pyrrolo[2,3-d]pyrimidin-4-amine] |  | 46% |  | 10% |  | 34% |  | 7% |  | 100% |  | 28% |  | 93% |  | 31%
